Experimental data taken from patent US20100189683A1, “Pulsatile Dosing of Gossypol for Treatment of Disease” (Ascenta Therapeutics, Inc., priority 2008, published 2010).

Tested on: patients with advanced cancer
Assay: Phase I clinical trial, daily versus pulsatile dosing of (−)-gossypol: adverse events graded by NCI-CTCAE v3 (Daily N = 38, BID × 3 d N = 21, Weekly N = 12)
Format: in vivo, human
Experimental: A phase I clinical trial was carried out to compare the maximum tolerated dose and safety of daily (i.e., continuous) versus pulsatile (i.e., intermittent) dosing of (−)-gossypol in patients with advanced cancer. A secondary objective of this study was to identify any anti-tumor activity of (−)-gossypol. Patients were treated with increasing doses of (−)-gossypol according to the following dosing schedules: “Daily” dosing: 5 to 60 mg/day of (−)-gossypol on 21 days per 28 day cycle; “BID×3d” dosing: 30 to 80 mg BID of (−)-gossypol on 3 consecutive days (e.g., Monday-Tuesday-Wednesday) repeated every other week per 28 day cycle; and “Weekly” dosing: 80 to 200 mg of (−)-gossypol once weekly per 28 day cycle. Adverse events (AEs) were graded by NCI-CTCAE v3.

## Cc1cc2c(C(C)C)c(O)c(O)c(C=O)c2c(O)c1-c1c(C)cc2c(C(C)C)c(O)c(O)c(C=O)c2c1O [(−)-gossypol]
BID × 3 d, Grade ½
  ALT increase: 2 (10) N (%)
  AST increase: 2 (10) N (%)
  Abdominal discomfort: 1 (5) N (%)
  Abdominal distention: 3 (14) N (%)
  Abdominal pain: 5 (24) N (%)
  Albumin decreased: 0 N (%)
  Alkaline phosphatase increase: 2 (10) N (%)
  Anorexia or decreased appetite: 10 (48) N (%)
  Any AE: 16 (76) N (%)
  Back pain: 1 (5) N (%)
  Constipation: 6 (29) N (%)
  Cough: 0 N (%)
  Creatinine increased: 2 (10) N (%)
  Creatinine phosphokinase increase: 0 N (%)
  Dehydration: 3 (14) N (%)
  Diarrhea: 8 (38) N (%)
  Dizziness: 2 (10) N (%)
  Dry mouth: 2 (10) N (%)
  Dysgeusia: 2 (10) N (%)
  Dyspnea: 5 (24) N (%)
  Fatigue/Asthenia: 15 (72) N (%)
  Flatulence: 2 (10) N (%)
  Headache: 1 (5) N (%)
  Hepatic encephalopathy: 0 N (%)
  Hyperbilirubinaemia: 0 N (%)
  Hyperkalemia: 1 (5) N (%)
  Hypocalcemia: 0 N (%)
  Hypokalemia: 1 (5) N (%)
  Hyponatremia: 1 (5) N (%)
  Infection: 0 N (%)
  Insomnia: 1 (5) N (%)
  Mental status changes: 0 N (%)
  Nausea: 14 (67) N (%)
  Pain: 3 (14) N (%)
  Pancreatitis: 0 N (%)
  Peripheral edema: 0 N (%)
  Pleural Effusion: 0 N (%)
  Pneumatosis intestinalis: 0 N (%)
  Pneumonia: 0 N (%)
  Proteinurea: 2 (10) N (%)
  Pyrexia: 3 (14) N (%)
  Renal Failure: 0 N (%)
  Sinusitis: 0 N (%)
  Small intestinal obstruction (ileus): 0 N (%)
  Troponin I or T increased: 1 (5) N (%)
  Urinary Tract Infection: 2 (10) N (%)
  Vomiting: 9 (43) N (%)
  Weight decreased: 4 (19) N (%)
  White blood cells increased: 2 (10) N (%)
BID × 3 d, Grade ¾
  ALT increase: 0 N (%)
  AST increase: 0 N (%)
  Abdominal discomfort: 0 N (%)
  Abdominal distention: 0 N (%)
  Abdominal pain: 2 (10) N (%)
  Albumin decreased: 0 N (%)
  Alkaline phosphatase increase: 0 N (%)
  Anorexia or decreased appetite: 1 (5) N (%)
  Any AE: 11 (52) N (%)
  Back pain: 0 N (%)
  Constipation: 0 N (%)
  Cough: 0 N (%)
  Creatinine increased: 0 N (%)
  Creatinine phosphokinase increase: 1 (5) N (%)
  Dehydration: 2 (10) N (%)
  Diarrhea: 1 (5) N (%)
  Dizziness: 0 N (%)
  Dry mouth: 0 N (%)
  Dysgeusia: 0 N (%)
  Dyspnea: 0 N (%)
  Fatigue/Asthenia: 1 (5) N (%)
  Flatulence: 0 N (%)
  Headache: 0 N (%)
  Hepatic encephalopathy: 1 (5) N (%)
  Hyperbilirubinaemia: 1 (5) N (%)
  Hyperkalemia: 1 (5) N (%)
  Hypocalcemia: 0 N (%)
  Hypokalemia: 3 (14) N (%)
  Hyponatremia: 1 (5) N (%)
  Infection: 0 N (%)
  Insomnia: 0 N (%)
  Mental status changes: 0 N (%)
  Nausea: 0 N (%)
  Pain: 1 (5) N (%)
  Pancreatitis: 1 (5) N (%)
  Peripheral edema: 0 N (%)
  Pleural Effusion: 0 N (%)
  Pneumatosis intestinalis: 1 (5) N (%)
  Pneumonia: 1 (5) N (%)
  Proteinurea: 0 N (%)
  Pyrexia: 0 N (%)
  Renal Failure: 1 (5) N (%)
  Sinusitis: 0 N (%)
  Small intestinal obstruction (ileus): 1 (5) N (%)
  Troponin I or T increased: 0 N (%)
  Urinary Tract Infection: 0 N (%)
  Vomiting: 2 (10) N (%)
  Weight decreased: 0 N (%)
  White blood cells increased: 0 N (%)
Daily, Grade ½
  ALT increase: 7 (18) N (%)
  AST increase: 6 (16) N (%)
  Abdominal discomfort: 0 N (%)
  Abdominal distention: 4 (11) N (%)
  Abdominal pain: 8 (21) N (%)
  Albumin decreased: 0 N (%)
  Alkaline phosphatase increase: 6 (16) N (%)
  Anorexia or decreased appetite: 19 (50) N (%)
  Any AE: 38 (100) N (%)
  Back pain: 6 (16) N (%)
  Constipation: 9 (24) N (%)
  Cough: 8 (21) N (%)
  Creatinine increased: 6 (16) N (%)
  Creatinine phosphokinase increase: 0 N (%)
  Dehydration: 9 (24) N (%)
  Diarrhea: 13 (34) N (%)
  Dizziness: 7 (18) N (%)
  Dry mouth: 3 (8) N (%)
  Dysgeusia: 2 (5) N (%)
  Dyspnea: 6 (16) N (%)
  Fatigue/Asthenia: 31 (81) N (%)
  Flatulence: 1 (3) N (%)
  Headache: 5 (13) N (%)
  Hepatic encephalopathy: 0 N (%)
  Hyperbilirubinaemia: 2 (5) N (%)
  Hyperkalemia: 2 (5) N (%)
  Hypocalcemia: 2 (5) N (%)
  Hypokalemia: 1 (3) N (%)
  Hyponatremia: 1 (3) N (%)
  Infection: 1 (3) N (%)
  Insomnia: 7 (18) N (%)
  Mental status changes: 0 N (%)
  Nausea: 22 (58) N (%)
  Pain: 6 (16) N (%)
  Pancreatitis: 0 N (%)
  Peripheral edema: 5 (13) N (%)
  Pleural Effusion: 1 (3) N (%)
  Pneumatosis intestinalis: 0 N (%)
  Pneumonia: 0 N (%)
  Proteinurea: 0 N (%)
  Pyrexia: 4 (11) N (%)
  Renal Failure: 0 N (%)
  Sinusitis: 4 (11) N (%)
  Small intestinal obstruction (ileus): 0 N (%)
  Troponin I or T increased: 2 (5) N (%)
  Urinary Tract Infection: 5 (13) N (%)
  Vomiting: 13 (34) N (%)
  Weight decreased: 11 (29) N (%)
  White blood cells increased: 0 N (%)
Daily, Grade ¾
  ALT increase: 5 (13) N (%)
  AST increase: 6 (13) N (%)
  Abdominal discomfort: 2 (5) N (%)
  Abdominal distention: 0 N (%)
  Abdominal pain: 1 (3) N (%)
  Albumin decreased: 0 N (%)
  Alkaline phosphatase increase: 0 N (%)
  Anorexia or decreased appetite: 1 (3) N (%)
  Any AE: 37 (98) N (%)
  Back pain: 0 N (%)
  Constipation: 0 N (%)
  Cough: 0 N (%)
  Creatinine increased: 0 N (%)
  Creatinine phosphokinase increase: 0 N (%)
  Dehydration: 2 (5) N (%)
  Diarrhea: 5 (13) N (%)
  Dizziness: 0 N (%)
  Dry mouth: 0 N (%)
  Dysgeusia: 0 N (%)
  Dyspnea: 3 (8) N (%)
  Fatigue/Asthenia: 4 (11) N (%)
  Flatulence: 0 N (%)
  Headache: 0 N (%)
  Hepatic encephalopathy: 0 N (%)
  Hyperbilirubinaemia: 1 (3) N (%)
  Hyperkalemia: 0 N (%)
  Hypocalcemia: 2 (5) N (%)
  Hypokalemia: 3 (8) N (%)
  Hyponatremia: 1 (3) N (%)
  Infection: 1 (3) N (%)
  Insomnia: 0 N (%)
  Mental status changes: 1 (3) N (%)
  Nausea: 5 (13) N (%)
  Pain: 0 N (%)
  Pancreatitis: 0 N (%)
  Peripheral edema: 0 N (%)
  Pleural Effusion: 2 (5) N (%)
  Pneumatosis intestinalis: 0 N (%)
  Pneumonia: 1 (3) N (%)
  Proteinurea: 0 N (%)
  Pyrexia: 1 (3) N (%)
  Renal Failure: 0 N (%)
  Sinusitis: 0 N (%)
  Small intestinal obstruction (ileus): 4 (11) N (%)
  Troponin I or T increased: 1 (3) N (%)
  Urinary Tract Infection: 0 N (%)
  Vomiting: 7 (18) N (%)
  Weight decreased: 0 N (%)
  White blood cells increased: 0 N (%)
Weekly, Grade ½
  ALT increase: 3 (25) N (%)
  AST increase: 1 (8) N (%)
  Abdominal discomfort: 0 N (%)
  Abdominal distention: 3 (25) N (%)
  Abdominal pain: 2 (17) N (%)
  Albumin decreased: 0 N (%)
  Alkaline phosphatase increase: 2 (17) N (%)
  Anorexia or decreased appetite: 7 (58) N (%)
  Any AE: 10 (83) N (%)
  Back pain: 1 (8) N (%)
  Constipation: 4 (33) N (%)
  Cough: 0 N (%)
  Creatinine increased: 2 (17) N (%)
  Creatinine phosphokinase increase: 0 N (%)
  Dehydration: 2 (17) N (%)
  Diarrhea: 0 N (%)
  Dizziness: 2 (17) N (%)
  Dry mouth: 1 (8) N (%)
  Dysgeusia: 2 (17) N (%)
  Dyspnea: 1 (8) N (%)
  Fatigue/Asthenia: 8 (67) N (%)
  Flatulence: 1 (8) N (%)
  Headache: 1 (8) N (%)
  Hepatic encephalopathy: 0 N (%)
  Hyperbilirubinaemia: 2 (17) N (%)
  Hyperkalemia: 0 N (%)
  Hypocalcemia: 2 (17) N (%)
  Hypokalemia: 2 (17) N (%)
  Hyponatremia: 0 N (%)
  Infection: 0 N (%)
  Insomnia: 3 (25) N (%)
  Mental status changes: 0 N (%)
  Nausea: 2 (17) N (%)
  Pain: 0 N (%)
  Pancreatitis: 0 N (%)
  Peripheral edema: 3 (25) N (%)
  Pleural Effusion: 0 N (%)
  Pneumatosis intestinalis: 0 N (%)
  Pneumonia: 0 N (%)
  Proteinurea: 2 (17) N (%)
  Pyrexia: 0 N (%)
  Renal Failure: 1 (8) N (%)
  Sinusitis: 0 N (%)
  Small intestinal obstruction (ileus): 0 N (%)
  Troponin I or T increased: 1 (8) N (%)
  Urinary Tract Infection: 2 (17) N (%)
  Vomiting: 0 N (%)
  Weight decreased: 2 (17) N (%)
  White blood cells increased: 0 N (%)
Weekly, Grade ¾
  ALT increase: 1 (8) N (%)
  AST increase: 4 (33) N (%)
  Abdominal discomfort: 0 N (%)
  Abdominal distention: 0 N (%)
  Abdominal pain: 0 N (%)
  Albumin decreased: 1 (8) N (%)
  Alkaline phosphatase increase: 1 (8) N (%)
  Anorexia or decreased appetite: 0 N (%)
  Any AE: 10 (48) N (%)
  Back pain: 0 N (%)
  Constipation: 0 N (%)
  Cough: 0 N (%)
  Creatinine increased: 1 (8) N (%)
  Creatinine phosphokinase increase: 1 (8) N (%)
  Dehydration: 2 (17) N (%)
  Diarrhea: 0 N (%)
  Dizziness: 0 N (%)
  Dry mouth: 0 N (%)
  Dysgeusia: 0 N (%)
  Dyspnea: 1 (8) N (%)
  Fatigue/Asthenia: 1 (8) N (%)
  Flatulence: 0 N (%)
  Headache: 0 N (%)
  Hepatic encephalopathy: 1 (8) N (%)
  Hyperbilirubinaemia: 2 (17) N (%)
  Hyperkalemia: 0 N (%)
  Hypocalcemia: 0 N (%)
  Hypokalemia: 1 (8) N (%)
  Hyponatremia: 0 N (%)
  Infection: 1 (8) N (%)
  Insomnia: 0 N (%)
  Mental status changes: 1 (8) N (%)
  Nausea: 0 N (%)
  Pain: 0 N (%)
  Pancreatitis: 0 N (%)
  Peripheral edema: 0 N (%)
  Pleural Effusion: 1 (8) N (%)
  Pneumatosis intestinalis: 1 (8) N (%)
  Pneumonia: 0 N (%)
  Proteinurea: 0 N (%)
  Pyrexia: 1 (8) N (%)
  Renal Failure: 0 N (%)
  Sinusitis: 0 N (%)
  Small intestinal obstruction (ileus): 2 (8) N (%)
  Troponin I or T increased: 2 (17) N (%)
  Urinary Tract Infection: 0 N (%)
  Vomiting: 0 N (%)
  Weight decreased: 0 N (%)
  White blood cells increased: 0 N (%)
Pulsatile dosing (BID×3d and Weekly) as compared to continuous daily dosing
  Percentage of AEs, particularly Grade 3/4 AEs: reduced percentage of AEs
